Assay [1] deals with FGFR1 (Homo sapiens, UniProt P11362). The assay can be described thus: radiometric kinase panel (Millipore), single concentration […]. As to conditions: read-out: Inhibition rate at 1 μM (%). The class given is biochemical.
Assay [2] deals with T1, FGFR2 (Homo sapiens, UniProt P21802).
T1 construct: kinase domains of FGFR2
Nature of the assay: in vitro FGFR2 kinase assay (CycLex kit / Z'-lyte FRET), dose response; radiometric panel […] at […]. It counts as biochemical.

Molecules are shown by their SMILES.

Broadly, the inhibition is the change of the read-out against control, counted positive when it falls. As usually defined, the IC50 is the concentration that inhibits the measured activity by half. High values mean weaker potency in that assay, low ones greater potency in that assay.

T1 sequence (P21802 458-768 limits assumed): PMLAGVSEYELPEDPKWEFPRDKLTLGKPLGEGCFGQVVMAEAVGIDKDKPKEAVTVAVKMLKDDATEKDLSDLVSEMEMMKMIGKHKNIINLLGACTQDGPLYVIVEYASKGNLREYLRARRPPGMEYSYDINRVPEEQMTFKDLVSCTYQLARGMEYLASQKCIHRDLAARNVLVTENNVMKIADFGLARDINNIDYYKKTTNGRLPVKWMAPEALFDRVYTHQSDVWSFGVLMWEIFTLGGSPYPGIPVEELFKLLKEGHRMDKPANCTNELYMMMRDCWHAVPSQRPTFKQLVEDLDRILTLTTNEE
Sequence of FGFR1 (P11362 22-822): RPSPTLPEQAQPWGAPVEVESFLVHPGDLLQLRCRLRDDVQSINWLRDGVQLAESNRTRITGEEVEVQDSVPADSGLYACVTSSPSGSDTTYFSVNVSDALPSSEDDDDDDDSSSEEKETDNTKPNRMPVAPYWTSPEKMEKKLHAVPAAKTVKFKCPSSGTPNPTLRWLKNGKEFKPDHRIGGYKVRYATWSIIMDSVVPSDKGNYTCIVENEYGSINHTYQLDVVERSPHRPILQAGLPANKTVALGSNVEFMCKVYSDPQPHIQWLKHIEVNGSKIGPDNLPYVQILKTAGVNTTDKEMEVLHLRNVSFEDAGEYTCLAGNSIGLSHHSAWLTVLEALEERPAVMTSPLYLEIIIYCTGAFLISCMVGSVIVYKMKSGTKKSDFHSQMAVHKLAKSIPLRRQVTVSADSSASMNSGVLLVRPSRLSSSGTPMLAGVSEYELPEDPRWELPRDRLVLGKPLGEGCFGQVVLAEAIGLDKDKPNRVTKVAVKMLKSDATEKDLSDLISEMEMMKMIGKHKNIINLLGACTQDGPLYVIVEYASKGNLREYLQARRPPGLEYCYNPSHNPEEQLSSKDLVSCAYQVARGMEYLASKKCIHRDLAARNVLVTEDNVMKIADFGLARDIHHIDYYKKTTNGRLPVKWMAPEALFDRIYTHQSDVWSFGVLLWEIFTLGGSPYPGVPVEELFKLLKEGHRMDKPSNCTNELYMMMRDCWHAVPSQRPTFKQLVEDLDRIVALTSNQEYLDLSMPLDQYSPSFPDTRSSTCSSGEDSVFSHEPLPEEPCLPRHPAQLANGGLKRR

Turning to `COc1ccc(-c2coc3cc(O)ccc3c2=O)cc1` [formononetin], the inhibition at 1 µM in assay [1] stood at 57 ± 4%. The molecule further displayed an IC50 in assay [2] of around 4.31 µM.

The values above are taken from paper PMC4792576, “Formononetin, a novel FGFR2 inhibitor, potently inhibits angiogenesis and tumor growth in preclinical models” (Oncotarget, 2015).
